Laboratory results as given in US4022912A, “Use of 1-decarboxy-1-hydroxymethyl-PGE1 in therapeutic bronchodilation” (priority 1976, dated 1977).
Entries after “also recorded” stand apart in the source; their conditions may differ. Where two headings read alike, the source gives them in different places.

How the values were obtained:
[1] = tested on: Convulsions Induced by Inhaled Histamine; assay: Delay of convulsions induced by inhaled histamine in conscious guinea pigs; assay type: in vivo, guinea pig
Protocol: Conscious male albino guinea pigs (Dunkin-Hartley strain) weighing 200-300 g were placed (singly) in a 5-liter transparent chamber for 1 minute and subjected to an aerosol of vehicle or test drug in solution, plus histamine (1% w/v).
The time from the beginning of the administration of the aerosol to the start of the first convulsion (when the guinea pig is immediately removed from the aerosol) is the pre-convulsion time. Twenty-four hours later the general procedure was repeated. Guinea pigs treated with the test drug on the first day were treated with vehicle on the second day and vice versa in a cross-over design. Maximum time allowed in the aerosol was 10 minutes. An ultrasonic humidifier was used to produce the aerosol.

Conscious Cat = assay: Tracheobronchial irritancy (coughing) in conscious cats after inhalation; assay type: in vivo; conditions: for tracheobronchial irritancy compared with PGE1: inhalation, equivalent concentrations/dosages
Protocol: A test drug was given at concentrations from 0.01 μg/ml (up to 100 μg/ml) at two hour intervals exposing each cat for up to 10 minutes each time. If coughing occurred no further challenge was given that day. Two to three days later the other test substance was given. The aerosol was delivered from an ultrasonic nebulizer via rubber tubing connected to a face mask fitted to the cat. The animal was mildly restrained. Coughing was noted by an observer and also monitored by a microphone connected to a tape recorder.

[2] = tested on: Guinea Pig Tracheal Tissue; assay: Relaxation of guinea pig tracheal tissue in vitro; assay type: cell-based; conditions: for Relaxation (×80) (± S.E.): Table B, standard error in parentheses
Protocol: Male guinea pigs weighing 200-500 g were killed by a blow on the head. A 20 mm length of trachea was dissected from each of the animals, transferred to a petri dish containing Krebs' solution aerated with 95% O2 and 5% CO2 at 37° C., and cut longitudinally opposite the tracheal muscle. The tissue was then cut transversely three quarters of the distance across; a second cut in the opposite direction again three quarters of the distance across the tissue was made, and the procedure was continued for the whole tissue. The ends of the trachea were pulled to form a zig-zag shaped strip. The tracheal strips used in the experiment were approximately 30 mm when extended under 0.25-0.5 g load in a tissue bath. Cotton thread was tied to one end of the tissues, and linen thread to the other. The tissues were attached via the linen thread to a glass hook in a 5 ml isolated tissue bath containing Krebs' solution at 37° C. aerated with a mixture of 95% O2 and 5% CO2. The opposite ends were attached via cotton thread to an isotonic transducer. The load on the transducer lever was small, usually 0.3 g, with a range of 0.25-0.5 g; and the magnification high, 80-fold using an appropriate twin-channel pen recorder. A minimum of thirty minutes was allowed before applying a drug to the tissues. Drugs were then applied (in volumes of 0.5 ml) at thirty minute intervals, being in contact with the tissue for five minutes followed by an overflow washout time of twenty seconds.

[3] = tested on: Histamine-Induced Bronchoconstriction; assay: Inhibition of intravenous histamine-induced bronchoconstriction in the anesthetized guinea pig by inhalational administration; assay type: in vivo
Protocol: (§1) Male albino guinea pigs (400-600 g; Dunkin-Hartley Strain) were anesthetized with pentobarbitone sodium (60 mg/kg intraperitoneally).
(§2) Trachea, external jugular vein and carotid artery were cannulated for recording ventilation, intravenous administration of drugs, and blood pressure respectively. The animals were artificially respired throughout the experiment. Electrocardiograms were also recorded. Respiratory flow was charted on a twin-channel recorder fixed to an SE differential pressure transducer.
(§3) Histamine was administered intravenously at 5 minute intervals. The test drug was administered intravenously 15 seconds prior to histamine in order to inhibit bronchoconstriction.
Details of the procedure of this example are the same as those in preceding Example 2 with the exception that the test compounds were delivered in aerosol form into the trachea of the test aminals.

platelet aggregation = conditions: U.S. Pat. No. 3,636,120 (Pike); cited from earlier work
Guinea Pig Ileum = assay: Antagonism to PGE1 in the guinea pig ileum in vitro; assay type: cell-based; conditions: for antagonism of the effects of PGE1 in the guinea pig ileum: in vitro
Protocol: Preparations were placed in tissue chambers filled with Ringer-Tyrode solution at 37° C., bubbled with a mixture of 95% O2 and 5% CO2, and arranged for isometric recording with force displacement transducers. The segments were stretched to an initial tension of 1 g, and responses to a test concentration of acetylcholine (0.1 mcg/ml) were obtained every 5 minutes until two similar responses were observed (usually after four administrations). Responses to PGE1
(0.1 mcg/ml) were obtained and recorded at 5 minute intervals before and after 100 seconds of incubation with 0.1 and 1.0 mcg/ml of 1-decarboxy-1-hydroxymethyl-PGE1. Any direct contractile effect of the test compound was recorded and evaluated in terms of mean values in grams of tension developed at each concentration. Responses to the agonist observed after incubation with the test compound were expressed as percent of control responses. All drugs were administered in a volume of 0.1 ml.

[4] = tested on: mobilization of free fatty acids induced by epinephrine; conditions: U.S. Pat. No. 3,636,120 (Pike); cited from earlier work
[5] = tested on: Histamine-Induced Bronchoconstriction; assay: Inhibition of histamine-induced bronchoconstriction in the anesthetized guinea pig in vivo by intravenous administration; conditions: for ED50: Cavia porcellus, iv, i.v. 15 seconds prior to histamine
Protocol: as §1, §2, §3

[6] = 0.10 μg/ml of stock solution aerosolized
[7] = 1.00 μg/ml of stock solution aerosolized
[8] = listed as 1-decarboxy-1-methylhydroxy-PGE1

CCCCC[C@H](O)/C=C/[C@H]1[C@H](O)CC(=O)[C@@H]1CCCCCCCO [1-Decarboxy-1-Hydroxymethyl-PGE1, 15(S)-1,11α,15α-trihydroxy-9-oxo-13-trans-prostene]
Prolongation of Preconvulsion Time ([1]; Expt. 1A, 0.10 μg/ml stock solution aerosolized, P <0.02): 99 s
Prolongation of Preconvulsion Time ([1]; Expt. 1A, 0.50 μg/ml stock solution aerosolized, P <0.001): 140 s
Prolongation of Preconvulsion Time ([1]; Expt. 1A, 2.50 μg/ml stock solution aerosolized, P <0.01): 141 s
Prolongation of Preconvulsion Time ([1]; Expt. 1A, 10.00 μg/ml stock solution aerosolized, P <0.02): 181 s
Prolongation of Preconvulsion Time ([1]; Expt. 2A, 0.01 μg/ml stock solution aerosolized, P <0.01): 54 s
Prolongation of Preconvulsion Time ([1]; Expt. 2A, 0.10 μg/ml stock solution aerosolized, P <0.05): 41 s
Prolongation of Preconvulsion Time ([1]; Expt. 2A, 1.00 μg/ml stock solution aerosolized, P <0.02): 108 s
Prolongation of Preconvulsion Time ([1]; Expt. 2A, 10.00 μg/ml stock solution aerosolized, P <0.02): 198 s
Prolongation of Preconvulsion Time ([1]; Expt. 2A, 25.00 μg/ml stock solution aerosolized, P <0.001): 302 s
Incidence of Coughing in a Female (F) Cat (Conscious Cat; [6]): 0/3
Incidence of Coughing in a Male (M) Cat (Conscious Cat; [6]): 0/3
Incidence of Coughing in a Female (F) Cat (Conscious Cat; [7]): 1/3
Incidence of Coughing in a Male (M) Cat (Conscious Cat; [7]): 0/3
Incidence of Coughing in a Male (M) Cat (Conscious Cat; 10.00 μg/ml of stock solution aerosolized): 0/3
Incidence of Coughing in a Male (M) Cat (Conscious Cat; 100.00 μg/ml of stock solution aerosolized): 0/2
tracheobronchial irritancy compared with PGE1 (Conscious Cat): much lower incidence of tracheobronchial irritancy than does PGE1 at equivalent concentrations; also recorded: does not cause tracheal-bronchial irritation at equivalent dosages
tracheobronchial irritancy compared with PGE1 (Conscious Cat; [8]): less irritating than PGE1
Relaxation (×80) (± S.E.) ([2]; 0.001 μg/ml): 24 (18) mm
Relaxation (×80), 1st Tissue ([2]; 0.01 μg/ml): 30 mm
Relaxation (×80), 2nd Tissue ([2]; 0.01 μg/ml): 30 mm
Relaxation (×80) (± S.E.) ([2]; 0.010 μg/ml): 59 (30) mm
Relaxation (×80), Mean Response ([2]; 0.01 μg/ml): 30 mm
Relaxation (×80), 1st Tissue ([2]; 0.10 μg/ml): 113 mm
Relaxation (×80), 2nd Tissue ([2]; 0.10 μg/ml): 93 mm
Relaxation (×80) (± S.E.) ([2]; 0.100 μg/ml): 79 (21) mm
Relaxation (×80), Mean Response ([2]; 0.10 μg/ml): 104 mm
Relaxation (×80), 1st Tissue ([2]; 1.00 μg/ml): 153 mm
Relaxation (×80), 2nd Tissue ([2]; 1.00 μg/ml): 173 mm
Relaxation (×80) (± S.E.) ([2]; 1.000 μg/ml): 104 (14) mm
Relaxation (×80), Mean Response ([2]; 1.00 μg/ml): 163 mm
Relaxation (×80), 1st Tissue ([2]; 10.00 μg/ml): 146 mm
Relaxation (×80), 2nd Tissue ([2]; 10.00 μg/ml): 199 mm
Relaxation (×80) (± S.E.) ([2]; 10.000 μg/ml): 105 (35) mm
Relaxation (×80), Mean Response ([2]; 10.00 μg/ml): 172 mm
times more potent than PGE1 in relaxing guinea pig tracheal tissue ([2]; at 0.001 μg/ml, relative to PGE1): 24 times
comparative effectiveness vs PGE1 in relaxation of tracheal tissue ([2]; equivalent concentrations): clearly more effective at equivalent concentrations
times more potent than PGE1 in relaxing guinea pig tracheal tissue in vitro ([2]; relative to PGE1, no concentration stated for this clause): 24 times
Precent Inhibition of Histamine-Induced Bronchoconstriction ([3]; 0.001 μg/ml in stock solution aerosolized, inhalation): 24%
times more effective than PGE1 in inhibition of histamine-induced bronchoconstriction ([3]; at 0.001 μg/ml, guinea pig in vivo, relative to PGE1): 4 times
effect on platelet aggregation (platelet aggregation): inhibits platelet aggregation
Direct Effect, gm tension (Guinea Pig Ileum; 0.1 mcg/ml): 0.0 gm tension
Direct Effect, gm tension (Guinea Pig Ileum; 1.0 mcg/ml): 0.0 gm tension
inhibition at 0.1 µg/mL (Guinea Pig Ileum; Cavia porcellus, 100 s, read-out: %-Blockade of Tissue Response to 0.1 mcg/ml of PGE1, 0.1 mcg/ml, 100 seconds of incubation): 38%
inhibition at 1 µg/mL (Guinea Pig Ileum; Cavia porcellus, 100 s, read-out: %-Blockade of Tissue Response to 0.1 mcg/ml of PGE1, 1.0 mcg/ml, 100 seconds of incubation): 100%
direct effect on the tissue (Guinea Pig Ileum; at the tested concentrations): no effect on the tissue at the tested concentrations
antagonism of the effects of PGE1 in the guinea pig ileum (Guinea Pig Ileum): inhibits the effects of PGE1 in guinea pig ileum tissue in vitro
antagonism of the effects of PGE1 in the guinea pig ileum (Guinea Pig Ileum; [8]): antagonizes the effects of PGE1 in the guinea pig ileum
effect on mobilization of free fatty acids induced by epinephrine [4]: antagonizes mobilization of free fatty acids induced by epinephrine
Ratio of ID50 Values (A/B) ([5]; A = PGE1, B = 1-decarboxy-1-hydroxymethyl-PGE1, Experiment No. 1): 1.14
Ratio of ID50 Values (A/B) ([5]; A = PGE1, B = 1-decarboxy-1-hydroxymethyl-PGE1, Experiment No. 2): 1.25
Ratio of ID50 Values (A/B) ([5]; A = PGE1, B = 1-decarboxy-1-hydroxymethyl-PGE1, Experiment No. 3): 1.17
Ratio of ID50 Values (A/B) ([5]; A = PGE1, B = 1-decarboxy-1-hydroxymethyl-PGE1, Experiment No. 4): 1.14
Ratio of ID50 Values (A/B) ([5]; A = PGE1, B = 1-decarboxy-1-hydroxymethyl-PGE1, Experiment No. 5): 1.05
Ratio of ID50 Values (A/B), Mean ([5]; A = PGE1, B = 1-decarboxy-1-hydroxymethyl-PGE1, mean): 1.17
ED50 ([5]; Experiment No. 1, read-out: Dose I.V. inhibiting bronchoconstriction by 50% (ID50)): 0.529 µg/kg
ED50 ([5]; Experiment No. 2, read-out: Dose I.V. inhibiting bronchoconstriction by 50% (ID50)): 0.733 µg/kg
ED50 ([5]; Experiment No. 3, read-out: Dose I.V. inhibiting bronchoconstriction by 50% (ID50)): 0.225 µg/kg
ED50 ([5]; Experiment No. 4, read-out: Dose I.V. inhibiting bronchoconstriction by 50% (ID50)): 0.756 µg/kg
ED50 ([5]; Experiment No. 5, read-out: Dose I.V. inhibiting bronchoconstriction by 50% (ID50)): 0.193 µg/kg
ED50 ([5]; mean of experiments 1-5, read-out: Dose I.V. inhibiting bronchoconstriction by 50% (ID50), Mean): 0.495 µg/kg
